Laboratory results as given in patent US20160046618A1, “Cyclopropyl Fused Thiazin-2-Amine Compounds as Beta-Secretase Inhibitors and Methods of Use” (AMGEN INC., priority 2014, published 2016).
Read-outs that look alike come from different tables or passages of the source.

Assays:
[1] = test system: Aβ40 in conditioned medium of cells stably expressing Amyloid Precursor Protein (APP); experiment: In vitro BACE-1 cell-based assay (Aβ40 sandwich ELISA); conditions: read-out: IC50 IP (μM) BACE1 cell
Method in brief: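 APP-stable cells, pre-cultured 24 h at 37° C in DMEM/10% FBS, were treated 24 h with compound in a 10-point series starting at 100 μM or 10 μM (0.1% DMSO final). Secreted Aβ40 in conditioned medium was measured by pAb40/biotin-6E10 sandwich ELISA with Europium time-resolved fluorescence; IC50 from percent inhibition versus concentration.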

Recombinant Cat D = Recombinant Cat D (Homo sapiens (Human), UniProt P07339); experiment: In vitro enzymatic Cathepsin D (Cat D) FRET assay; format: biochemical; conditions: read-out: IC50 IP (μM) CatD
Method in brief: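 Fluorescence at 500 nm excitation and 580 nm emission reports cleavage of a quenched fluorophore–quencher peptide (20 nM) by CHO-expressed Cat D. Reactions ran one hour in 0.05 M citrate pH 3.5, 5 mM CHAPS, 10% DMSO final before a Tris stop raised pH to neutrality.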

human recombinant BACE2 = human recombinant BACE2 (Homo sapiens (Human), UniProt Q9Y5Z0); experiment: In vitro enzymatic BACE2 FRET assay; format: biochemical; conditions: read-out: IC50 IP (μM) BACE2 enzyme
Method in brief: (§1)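 FRET cleavage assay using Ni-NTA-purified recombinant protease and 50 nM quenched peptide substrate, 1 h. Stopped by neutralising with Tris; fluorescence at 488/590 nm.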

human recombinant BACE1 = human recombinant BACE1 (Homo sapiens (Human), UniProt P56817); experiment: In vitro enzymatic BACE1 FRET assay; format: biochemical; conditions: read-out: IC50 IP (μM) BACE1 enzyme
Method in brief: as §1

Chain of human recombinant BACE2 (Q9Y5Z0 63-518): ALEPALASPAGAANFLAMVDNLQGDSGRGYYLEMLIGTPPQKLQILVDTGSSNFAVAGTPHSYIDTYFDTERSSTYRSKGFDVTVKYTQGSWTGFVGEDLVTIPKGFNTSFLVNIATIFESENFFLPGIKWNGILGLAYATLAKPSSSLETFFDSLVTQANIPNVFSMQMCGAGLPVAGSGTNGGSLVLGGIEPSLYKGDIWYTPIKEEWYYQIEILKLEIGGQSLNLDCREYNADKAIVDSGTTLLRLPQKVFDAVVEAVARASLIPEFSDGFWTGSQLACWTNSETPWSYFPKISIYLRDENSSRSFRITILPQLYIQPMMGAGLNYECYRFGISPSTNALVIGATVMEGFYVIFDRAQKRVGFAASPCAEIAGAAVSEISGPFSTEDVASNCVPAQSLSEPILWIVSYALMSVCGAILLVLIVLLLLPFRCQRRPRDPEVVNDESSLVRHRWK
Chain of human recombinant BACE1 (P56817 46-501): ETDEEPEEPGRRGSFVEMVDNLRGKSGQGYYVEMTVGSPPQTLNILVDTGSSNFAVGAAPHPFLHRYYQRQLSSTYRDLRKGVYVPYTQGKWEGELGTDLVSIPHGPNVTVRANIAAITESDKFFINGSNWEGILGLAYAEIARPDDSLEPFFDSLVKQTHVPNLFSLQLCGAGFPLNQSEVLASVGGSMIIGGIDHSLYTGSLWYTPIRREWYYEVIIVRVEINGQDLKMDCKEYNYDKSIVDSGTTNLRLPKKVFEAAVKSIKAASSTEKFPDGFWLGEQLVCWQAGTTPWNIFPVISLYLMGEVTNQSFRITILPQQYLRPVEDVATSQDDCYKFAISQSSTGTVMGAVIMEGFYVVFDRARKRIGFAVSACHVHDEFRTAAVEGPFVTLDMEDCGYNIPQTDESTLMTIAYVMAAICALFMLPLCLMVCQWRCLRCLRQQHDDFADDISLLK
Chain of Recombinant Cat D (P07339 65-412): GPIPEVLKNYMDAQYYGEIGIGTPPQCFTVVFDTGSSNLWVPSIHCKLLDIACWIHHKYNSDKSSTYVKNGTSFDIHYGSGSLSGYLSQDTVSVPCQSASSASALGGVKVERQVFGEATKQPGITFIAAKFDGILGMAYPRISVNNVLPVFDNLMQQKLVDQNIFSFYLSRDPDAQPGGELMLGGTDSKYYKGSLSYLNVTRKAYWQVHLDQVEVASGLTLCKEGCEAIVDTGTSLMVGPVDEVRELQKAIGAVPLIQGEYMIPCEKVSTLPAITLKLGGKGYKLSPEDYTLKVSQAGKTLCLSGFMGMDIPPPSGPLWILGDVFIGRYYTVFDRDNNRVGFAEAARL

| SMILES | IC50 [1] | IC50 (Recombinant Cat D) | IC50 (human recombinant BACE2) | IC50 (human recombinant BACE1) | IC50 ([1]; BACE1 cell-based assay) | IC50 (Recombinant Cat D; Cathepsin D FRET enzyme assay) | IC50 (human recombinant BACE2; BACE2 FRET enzyme assay) | IC50 (human recombinant BACE1; BACE1 FRET enzyme assay) |
| --- | --- | --- | --- | --- | --- | --- | --- | --- |
| C[C@]1(c2cc(NC(=O)c3ccc(Cl)cn3)cnc2F)N=C(N)S[C@@]2(CO)C[C@H]21 [Example 100, N-(5-((1S,5S,6S)-3-amino-1-(hydroxymethyl)-5-methyl-2-thia-4-azabicyclo[4.1.0]hept-3-en-5-yl)-6-fluoropyridin-3-yl)-5-chloropicolinamide] | – | – | – | – | 0.0112 µM | > 400 µM | 0.0038 µM | 0.0225 µM |
| Cc1cc(C#N)cnc1C(=O)Nc1cc(F)c(F)c([C@@]2(CF)N=C(N)S[C@@]3(CO)C[C@H]32)c1 [Example 70, N-(3-((1S,5S,6S)-3-amino-5-(fluoromethyl)-1-(hydroxymethyl)-2-thia-4-azabicyclo[4.1.0]hept-3-en-5-yl)-4,5-difluorophenyl)-5-cyano-3-methyl-2-pyridinecarboxamide] | – | – | – | – | 0.0035 µM | > 400 µM | 0.00247 µM | 0.00116 µM |
| C[C@]1(c2cc(Nc3ncnc4cc(C#N)cnc34)cnc2F)N=C(N)S[C@@]2(C(F)F)C[C@@H]12 [Example 658, 4-((5-((1S,5S,6S)-3-amino-1-(difluoromethyl)-5-methyl-2-thia-4-azabicyclo[4.1.0]hept-3-en-5-yl)-6-fluoro-3-pyridinyl)amino)pyrido[3,2-d]pyrimidine-7-carbonitrile] | 0.0136 µM | 705 µM | 0.0293 µM | 0.0107 µM | – | – | – | – |
| COC[C@]12C[C@H]1[C@@](C)(c1cc(Nc3ncnc4cc(Cl)cnc34)cnc1F)N=C(N)S2 [Example 844, (1S,5S,6S)-5-(5-((7-chloropyrido[3,2-d]pyrimidin-4-yl)amino)-2-fluoropyridin-3-yl)-1-(methoxymethyl)-5-methyl-2-thia-4-azabicyclo[4.1.0]hept-3-en-3-amine] | 0.0145 µM | 1780 µM | 0.0108 µM | 0.0219 µM | – | – | – | – |

More lines, main results first:

| IC50 [1] | IC50 (Recombinant Cat D) | IC50 (human recombinant BACE2) | IC50 (human recombinant BACE1) | SMILES | IC50 ([1]; BACE1 cell-based assay) | IC50 (Recombinant Cat D; Cathepsin D FRET enzyme assay) | IC50 (human recombinant BACE2; BACE2 FRET enzyme assay) | IC50 (human recombinant BACE1; BACE1 FRET enzyme assay) |
| --- | --- | --- | --- | --- | --- | --- | --- | --- |
| 0.0162 µM | 43.5 µM | 0.0307 µM | 0.00037 µM | C#CCOc1cnc(C(=O)Nc2cc(F)c(F)c([C@@]3(C)N=C(N)S[C@@]4(COCC)C[C@H]43)c2)cn1 [Example 1046, N-(3-((1S,5S,6S)-3-amino-1-(ethoxymethyl)-5-methyl-2-thia-4-azabicyclo[4.1.0]hept-3-en-5-yl)-4,5-difluorophenyl)-5-(2-propyn-1-yloxy)-2-pyrazinecarboxamide] | – | – | – | – |
| 0.00439 µM | 577 µM | 0.0876 µM | 0.000782 µM | CCNC(=O)[C@]12C[C@H]1[C@@](C)(c1cc(NC(=O)c3cnc(OCC(F)(F)F)cn3)ccc1F)N=C(N)S2 [Example 977, (1S,5S,6S)-3-amino-N-ethyl-5-(2-fluoro-5-(5-(2,2,2-trifluoroethoxy)pyrazine-2-carboxamido)phenyl)-5-methyl-2-thia-4-azabicyclo[4.1.0]hept-3-ene-1-carboxamide] | – | – | – | – |
| 0.0076 µM | > 400 µM | 0.13 µM | 0.0074 µM | C#CCCOc1cnc(C(=O)Nc2cc(F)c(F)c([C@@]3(C)N=C(N)S[C@@]4(COC)C[C@H]43)c2)cn1 [Example 1060, N-(3-((1S,5S,6S)-3-amino-1-(methoxymethyl)-5-methyl-2-thia-4-azabicyclo[4.1.0]hept-3-en-5-yl)-4,5-difluorophenyl)-5-(3-butyn-1-yloxy)-2-pyrazinecarboxamide] | – | – | – | – |
| 0.00141 µM | 172 µM | 0.00598 µM | 0.00113 µM | CC(C)(C)NC(=O)[C@]12C[C@H]1[C@@](C)(c1cc(NC(=O)c3ccc(C#N)cn3)ccc1F)N=C(N)S2 [Example 986, (1S,5S,6S)-3-amino-N-tert-butyl-5-(5-(((5-cyano-2-pyridinyl)carbonyl)amino)-2-fluorophenyl)-5-methyl-2-thia-4-azabicyclo[4.1.0]hept-3-ene-1-carboxamide] | – | – | – | – |
